{
  "source": "patent US12274684B2",
  "about": "“Treatment of vasculopathy with prostacyclin and mesenchymal stem cells” (United Therapeutics Corporation, priority 2013, dated 2025)",
  "test_system": "human bone marrow MSC",
  "assay": "Microarray gene expression analysis of MSC (Illumina Human HT12 Expression BeadChip)",
  "type": "cell-based",
  "settings": "Tre(+) 250 μg/mL, 24 h",
  "experimental": "Human bone marrow MSC were expanded and seeded into six (6) T225 flasks using standard growth medium (Table 1). At 95-99% confluency, cells were thoroughly washed with PBS. Three (3) flasks were replenished with basal media containing 250 μg/mL treprostinil, (+)Tre, and the remaining three (3) flasks were replenished with unsupplemented basal media, (−)Tre. After 24 hours of culture, representative images were captured from (+) Tre and (−) Tre cultures. Conditioned media was collected from each replicate, divided into two samples of appropriate volumes, and analyzed separately for: 1) secreted proteins (Myriad RBM InflammationMAP® 1.0) and 2) exosome RNA content. Cells were lysed directly from culture flasks, processed for total RNA isolation, and analyzed for gene expression by microarray (Illumina Human HT12 Expression BeadChip). Microarray gene expression analysis was also performed on MSC from cultures without (−) or with (+) 250 ug/mL treprostinil. Three (3) biological replicates from each condition were analyzed. Of the 77,612 sequences identified among all replicates, only 24,273 were detected above the arbitrary background of 50 counts. 2,984 RNA sequences were unique to Tre(−) cultures, while 1,781 RNA sequences were unique to Tre(+) cultures (panel A). Genes detected in both conditions were further analyzed for differential expression (panel). […] Genes that are expressed only in Tre(−) cultures (that is to say, completely turned off in the Tre(+) cultures) are shown in Table 5.",
  "data": [
    {"smiles": "CCCCC[C@H](O)CC[C@@H]1[C@H]2Cc3cccc(OCC(=O)O)c3C[C@H]2C[C@H]1O", "note": "[treprostinil]", "values": [
      {"measurement": "CLDN11 (NM_005602) expression, AVG", "setting": "Tre(−) AVG 543", "result": 13, "unit": "counts"},
      {"measurement": "FAM198B (NM_001128424) expression, AVG", "setting": "Tre(−) AVG 559", "result": 15, "unit": "counts"},
      {"measurement": "SLC7A8 (NM_182728) expression, AVG", "setting": "Tre(−) AVG 613", "result": 43, "unit": "counts"},
      {"measurement": "ASPM (NM_018136) expression, AVG", "setting": "Tre(−) AVG 625", "result": 26, "unit": "counts"},
      {"measurement": "CPA4 (NM_016352) expression, AVG", "setting": "Tre(−) AVG 631", "result": 53, "unit": "counts"},
      {"measurement": "CELF1 (NM_001172640) expression, AVG", "setting": "Tre(−) AVG 644", "result": 59, "unit": "counts"},
      {"measurement": "TCF12 (NM_207040) expression, AVG", "setting": "Tre(−) AVG 648", "result": 40, "unit": "counts"},
      {"measurement": "SCN2A (NM_021007) expression, AVG", "setting": "Tre(−) AVG 652", "result": 20, "unit": "counts"},
      {"measurement": "ASPH (NM_001164754) expression, AVG", "setting": "Tre(−) AVG 658", "result": 37, "unit": "counts"},
      {"measurement": "CIT (NM_001206999) expression, AVG", "setting": "Tre(−) AVG 661", "result": 9, "unit": "counts"},
      {"measurement": "VEGFA (NM_001171626) expression, AVG", "setting": "Tre(−) AVG 664", "result": 7603, "unit": "counts"},
      {"measurement": "ANLN (NM_018685) expression, AVG", "setting": "Tre(−) AVG 669", "result": 57, "unit": "counts"},
      {"measurement": "ST8SIA1 (NM_003034) expression, AVG", "setting": "Tre(−) AVG 731", "result": 45, "unit": "counts"},
      {"measurement": "TPM1 (NM_001018007) expression, AVG", "setting": "Tre(−) AVG 731", "result": 36, "unit": "counts"},
      {"measurement": "FAM84A (NM_145175) expression, AVG", "setting": "Tre(−) AVG 733", "result": 45, "unit": "counts"},
      {"measurement": "SPATA20 (NM_022827) expression, AVG", "setting": "Tre(−) AVG 733", "result": 15, "unit": "counts"},
      {"measurement": "PRRT2 (NM_145239) expression, AVG", "setting": "Tre(−) AVG 744", "result": 36, "unit": "counts"},
      {"measurement": "LRRC17 (NM_001031692) expression, AVG", "setting": "Tre(−) AVG 746", "result": 22, "unit": "counts"},
      {"measurement": "ANGPT1 (NM_001146) expression, AVG", "setting": "Tre(−) AVG 780", "result": 53, "unit": "counts"},
      {"measurement": "ANK3 (NM_001204403) expression, AVG", "setting": "Tre(−) AVG 811", "result": 57, "unit": "counts"},
      {"measurement": "SNX14 (NM_153816) expression, AVG", "setting": "Tre(−) AVG 813", "result": 18, "unit": "counts"},
      {"measurement": "RCAN1 (NM_203418) expression, AVG", "setting": "Tre(−) AVG 814", "result": 8908, "unit": "counts"},
      {"measurement": "OLFML1 (NM_198474) expression, AVG (Table 5)", "setting": "Tre(−) AVG 816", "result": 42, "unit": "counts"},
      {"measurement": "RASA4 (NM_006989) expression, AVG", "setting": "Tre(−) AVG 857", "result": 11, "unit": "counts"},
      {"measurement": "GDF5 (NM_000557) expression, AVG", "setting": "Tre(−) AVG 883", "result": 71, "unit": "counts"},
      {"measurement": "MAP1B (NM_005909) expression, AVG", "setting": "Tre(−) AVG 886", "result": 42, "unit": "counts"},
      {"measurement": "C13orf33 (NM_032849) expression, AVG", "setting": "Tre(−) AVG 918", "result": 19296, "unit": "counts"},
      {"measurement": "MEOX2 (NM_005924) expression, AVG", "setting": "Tre(−) AVG 982", "result": 31, "unit": "counts"},
      {"measurement": "MYLK (NM_053025) expression, AVG", "setting": "Tre(−) AVG 991", "result": 0, "unit": "counts"},
      {"measurement": "SLC14A1 (NM_015865) expression, AVG (Table 5)", "setting": "Tre(−) AVG 1036", "result": 19, "unit": "counts"},
      {"measurement": "FLG (NM_002016) expression, AVG", "setting": "Tre(−) AVG 1052", "result": 28, "unit": "counts"},
      {"measurement": "ARPC4 (NM_001024960) expression, AVG", "setting": "Tre(−) AVG 1150", "result": 12, "unit": "counts"},
      {"measurement": "RCAN2 (NM_001251974) expression, AVG", "setting": "Tre(−) AVG 1218", "result": 105, "unit": "counts"},
      {"measurement": "EPB41L2 (NM_001199389) expression, AVG", "setting": "Tre(−) AVG 1272", "result": 113, "unit": "counts"},
      {"measurement": "SLC2A12 (NM_145176) expression, AVG", "setting": "Tre(−) AVG 1281", "result": 105, "unit": "counts"},
      {"measurement": "MEST (NM_002402) expression, AVG", "setting": "Tre(−) AVG 1283", "result": 85, "unit": "counts"},
      {"measurement": "METTL7A (NM_014033) expression, AVG", "setting": "Tre(−) AVG 1299", "result": 109, "unit": "counts"},
      {"measurement": "S100A4 (NM_002961) expression, AVG", "setting": "Tre(−) AVG 1312", "result": 125, "unit": "counts"},
      {"measurement": "RBFOX2 (NM_001031695) expression, AVG", "setting": "Tre(−) AVG 1316", "result": 10, "unit": "counts"},
      {"measurement": "ACTN1 (NM_001130005) expression, AVG", "setting": "Tre(−) AVG 1459", "result": 115, "unit": "counts"},
      {"measurement": "OLFML2B (NM_015441) expression, AVG", "setting": "Tre(−) AVG 1465", "result": 70, "unit": "counts"},
      {"measurement": "PRELP (NM_002725) expression, AVG", "setting": "Tre(−) AVG 1474", "result": 114, "unit": "counts"},
      {"measurement": "COL21A1 (NM_030820) expression, AVG", "setting": "Tre(−) AVG 1569", "result": 57, "unit": "counts"},
      {"measurement": "SLC14A1 (NM_015865) expression, AVG (Table 4)", "setting": "Tre(−) AVG 1621", "result": 88, "unit": "counts"},
      {"measurement": "DDAH1 (NM_001134445) expression, AVG", "setting": "Tre(−) AVG 1685", "result": 133, "unit": "counts"},
      {"measurement": "LMOD1 (NM_012134) expression, AVG", "setting": "Tre(−) AVG 1722", "result": 65, "unit": "counts"},
      {"measurement": "OLFML1 (NM_198474) expression, AVG (Table 4)", "setting": "Tre(−) AVG 1734", "result": 140, "unit": "counts"},
      {"measurement": "MXRA5 (NM_015419) expression, AVG", "setting": "Tre(−) AVG 1759", "result": 54, "unit": "counts"},
      {"measurement": "DKFZp547J0510 (CDNA FLJ42650 fis, clone BRACE3027478) expression, AVG", "setting": "Tre(−) AVG 1932", "result": 148, "unit": "counts"},
      {"measurement": "PLIN2 (NM_001122) expression, AVG", "setting": "Tre(−) AVG 1976", "result": 92927, "unit": "counts"},
      {"measurement": "SYNPO2 (NM_001128933) expression, AVG", "setting": "Tre(−) AVG 2551", "result": 104, "unit": "counts"},
      {"measurement": "ASPH (NM_004318) expression, AVG", "setting": "Tre(−) AVG 2719", "result": 1, "unit": "counts"},
      {"measurement": "SREBF1 (NM_001005291) expression, AVG", "setting": "Tre(−) AVG 2936", "result": 12, "unit": "counts"},
      {"measurement": "SLC3A2 (NM_001013251) expression, AVG", "setting": "Tre(−) AVG 3190", "result": 33526, "unit": "counts"},
      {"measurement": "PDE5A (NM_033430) expression, AVG", "setting": "Tre(−) AVG 3361", "result": 222, "unit": "counts"},
      {"measurement": "MEST (NM_177525) expression, AVG", "setting": "Tre(−) AVG 3552", "result": 298, "unit": "counts"},
      {"measurement": "RND3 (NM_005168) expression, AVG", "setting": "Tre(−) AVG 4013", "result": 51756, "unit": "counts"},
      {"measurement": "ISLR (NM_005545) expression, AVG", "setting": "Tre(−) AVG 5533", "result": 548, "unit": "counts"},
      {"measurement": "PALLD (NM_001166109) expression, AVG", "setting": "Tre(−) AVG 9809", "result": 753, "unit": "counts"},
      {"measurement": "CXCL12 (NM_199168) expression, AVG", "setting": "Tre(−) AVG 10574", "result": 671, "unit": "counts"},
      {"measurement": "CTGF (NM_001901) expression, AVG", "setting": "Tre(−) AVG 23012", "result": 741, "unit": "counts"},
      {"measurement": "COL6A3 (NM_004369) expression, AVG", "setting": "Tre(−) AVG 54326", "result": 4635, "unit": "counts"}
    ]}
  ]
}
